Read-outs that look alike come from different tables or passages of the source.
Legend:
[1] = target: PI3K-α (Homo sapiens, UniProt P42336); assay: PI3K-alpha fluorescence polarization assay
[2] = tested on: human prostate LNCap tumor cell line; assay: In vitro cell culture growth assay (MTS), LNCap; details: Homo sapiens, LNCaP, 72 h, read-out: IC50 LNCap
[3] = target: PI3K-γ (Homo sapiens, UniProt P48736); assay: PI3K-gamma fluorescence polarization assay
[4] = target: Human mTOR (FLAG-TOR) (Homo sapiens, UniProt P42345); assay: mTOR kinase assay (DELFIA format, purified enzyme); assay type: biochemical; details: read-out: IC50 mTOR
Chain of Human mTOR (FLAG-TOR) (P42345 1360-2549 limits assumed): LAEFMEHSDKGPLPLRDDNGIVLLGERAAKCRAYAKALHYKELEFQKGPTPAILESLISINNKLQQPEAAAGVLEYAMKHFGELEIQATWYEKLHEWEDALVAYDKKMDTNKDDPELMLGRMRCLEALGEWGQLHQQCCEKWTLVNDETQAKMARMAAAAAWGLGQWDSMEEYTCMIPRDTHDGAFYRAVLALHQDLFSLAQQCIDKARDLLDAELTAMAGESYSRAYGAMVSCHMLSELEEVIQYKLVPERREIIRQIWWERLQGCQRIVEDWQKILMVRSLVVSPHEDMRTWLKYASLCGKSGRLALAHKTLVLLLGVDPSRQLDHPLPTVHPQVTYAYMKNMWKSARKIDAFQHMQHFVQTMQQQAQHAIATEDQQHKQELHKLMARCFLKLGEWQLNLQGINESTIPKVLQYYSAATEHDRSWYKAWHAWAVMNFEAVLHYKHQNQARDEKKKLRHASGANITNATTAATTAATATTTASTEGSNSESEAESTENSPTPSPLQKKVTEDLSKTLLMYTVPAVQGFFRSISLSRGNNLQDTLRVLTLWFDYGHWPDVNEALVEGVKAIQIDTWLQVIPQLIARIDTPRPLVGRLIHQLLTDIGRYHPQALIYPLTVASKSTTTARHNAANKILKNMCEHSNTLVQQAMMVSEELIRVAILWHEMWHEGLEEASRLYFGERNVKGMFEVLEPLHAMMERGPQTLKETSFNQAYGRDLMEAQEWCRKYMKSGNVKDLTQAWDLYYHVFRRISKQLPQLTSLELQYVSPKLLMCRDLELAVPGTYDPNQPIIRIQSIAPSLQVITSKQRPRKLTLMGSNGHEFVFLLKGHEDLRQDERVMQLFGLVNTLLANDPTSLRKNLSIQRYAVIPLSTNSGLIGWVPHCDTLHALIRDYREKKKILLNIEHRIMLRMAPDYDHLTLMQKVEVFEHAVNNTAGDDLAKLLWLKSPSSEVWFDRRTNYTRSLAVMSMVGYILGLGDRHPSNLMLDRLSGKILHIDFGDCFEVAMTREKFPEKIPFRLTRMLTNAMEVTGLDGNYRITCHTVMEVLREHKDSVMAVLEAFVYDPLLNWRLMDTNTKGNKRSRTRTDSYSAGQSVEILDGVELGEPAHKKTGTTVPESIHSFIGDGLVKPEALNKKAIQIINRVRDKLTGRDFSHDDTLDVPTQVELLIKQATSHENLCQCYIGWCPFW

Chain of PI3K-γ (P48736 whole entry, species assumed): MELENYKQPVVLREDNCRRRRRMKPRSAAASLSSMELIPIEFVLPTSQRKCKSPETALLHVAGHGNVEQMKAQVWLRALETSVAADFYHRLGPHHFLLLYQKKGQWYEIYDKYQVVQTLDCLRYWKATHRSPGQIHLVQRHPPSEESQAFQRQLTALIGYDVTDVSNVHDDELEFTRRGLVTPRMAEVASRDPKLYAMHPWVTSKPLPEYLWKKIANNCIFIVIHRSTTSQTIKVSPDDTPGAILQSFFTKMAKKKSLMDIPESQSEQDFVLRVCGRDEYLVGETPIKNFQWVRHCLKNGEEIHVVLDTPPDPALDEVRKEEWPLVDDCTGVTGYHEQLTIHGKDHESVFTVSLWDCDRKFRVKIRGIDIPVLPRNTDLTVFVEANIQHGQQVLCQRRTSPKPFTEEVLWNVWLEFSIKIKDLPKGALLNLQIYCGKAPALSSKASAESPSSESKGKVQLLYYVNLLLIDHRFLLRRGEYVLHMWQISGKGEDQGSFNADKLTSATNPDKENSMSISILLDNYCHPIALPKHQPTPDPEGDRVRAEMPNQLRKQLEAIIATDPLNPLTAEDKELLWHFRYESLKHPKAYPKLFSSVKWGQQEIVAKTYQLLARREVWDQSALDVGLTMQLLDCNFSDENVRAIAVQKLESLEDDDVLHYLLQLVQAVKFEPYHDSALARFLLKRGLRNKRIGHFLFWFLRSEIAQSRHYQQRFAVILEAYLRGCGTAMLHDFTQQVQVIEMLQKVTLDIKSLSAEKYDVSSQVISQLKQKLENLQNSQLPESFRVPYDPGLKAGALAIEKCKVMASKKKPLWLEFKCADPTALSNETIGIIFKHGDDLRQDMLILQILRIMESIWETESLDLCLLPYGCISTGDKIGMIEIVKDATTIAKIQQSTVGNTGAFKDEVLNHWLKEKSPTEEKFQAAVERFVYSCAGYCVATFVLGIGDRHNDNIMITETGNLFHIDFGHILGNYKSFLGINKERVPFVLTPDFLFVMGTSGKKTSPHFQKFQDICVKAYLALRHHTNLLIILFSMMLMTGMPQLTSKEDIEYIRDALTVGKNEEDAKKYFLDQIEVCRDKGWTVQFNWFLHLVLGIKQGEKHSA
Chain of PI3K-α (P42336 whole entry, species assumed): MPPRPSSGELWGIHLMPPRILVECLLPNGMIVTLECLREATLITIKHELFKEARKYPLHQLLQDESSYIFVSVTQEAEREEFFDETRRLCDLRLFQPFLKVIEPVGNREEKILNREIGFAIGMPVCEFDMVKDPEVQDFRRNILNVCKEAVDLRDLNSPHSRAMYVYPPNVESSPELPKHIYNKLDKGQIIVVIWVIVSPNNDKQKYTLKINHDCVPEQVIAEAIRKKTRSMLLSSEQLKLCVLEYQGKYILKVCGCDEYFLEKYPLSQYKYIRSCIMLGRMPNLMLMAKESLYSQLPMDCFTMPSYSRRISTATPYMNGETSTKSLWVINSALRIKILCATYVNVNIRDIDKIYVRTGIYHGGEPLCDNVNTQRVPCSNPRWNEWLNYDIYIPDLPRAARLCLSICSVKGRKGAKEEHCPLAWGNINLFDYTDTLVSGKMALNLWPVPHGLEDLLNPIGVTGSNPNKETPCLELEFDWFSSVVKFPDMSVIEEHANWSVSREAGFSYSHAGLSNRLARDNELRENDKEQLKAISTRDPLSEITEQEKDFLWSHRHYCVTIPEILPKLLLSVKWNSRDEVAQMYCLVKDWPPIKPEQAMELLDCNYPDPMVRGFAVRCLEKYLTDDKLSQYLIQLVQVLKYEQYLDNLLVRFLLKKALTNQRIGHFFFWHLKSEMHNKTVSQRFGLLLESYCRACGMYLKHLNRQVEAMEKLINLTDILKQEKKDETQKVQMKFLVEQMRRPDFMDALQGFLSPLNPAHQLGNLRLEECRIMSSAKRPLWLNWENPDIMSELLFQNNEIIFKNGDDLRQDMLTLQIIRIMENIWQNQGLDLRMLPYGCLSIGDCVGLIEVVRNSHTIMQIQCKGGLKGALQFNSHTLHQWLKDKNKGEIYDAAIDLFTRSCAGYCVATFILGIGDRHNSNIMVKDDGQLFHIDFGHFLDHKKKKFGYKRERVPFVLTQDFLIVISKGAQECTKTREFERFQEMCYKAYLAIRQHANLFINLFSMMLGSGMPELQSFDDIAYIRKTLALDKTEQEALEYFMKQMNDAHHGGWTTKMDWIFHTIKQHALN
Chain of PI3K-α (P27986 whole entry partner, species assumed): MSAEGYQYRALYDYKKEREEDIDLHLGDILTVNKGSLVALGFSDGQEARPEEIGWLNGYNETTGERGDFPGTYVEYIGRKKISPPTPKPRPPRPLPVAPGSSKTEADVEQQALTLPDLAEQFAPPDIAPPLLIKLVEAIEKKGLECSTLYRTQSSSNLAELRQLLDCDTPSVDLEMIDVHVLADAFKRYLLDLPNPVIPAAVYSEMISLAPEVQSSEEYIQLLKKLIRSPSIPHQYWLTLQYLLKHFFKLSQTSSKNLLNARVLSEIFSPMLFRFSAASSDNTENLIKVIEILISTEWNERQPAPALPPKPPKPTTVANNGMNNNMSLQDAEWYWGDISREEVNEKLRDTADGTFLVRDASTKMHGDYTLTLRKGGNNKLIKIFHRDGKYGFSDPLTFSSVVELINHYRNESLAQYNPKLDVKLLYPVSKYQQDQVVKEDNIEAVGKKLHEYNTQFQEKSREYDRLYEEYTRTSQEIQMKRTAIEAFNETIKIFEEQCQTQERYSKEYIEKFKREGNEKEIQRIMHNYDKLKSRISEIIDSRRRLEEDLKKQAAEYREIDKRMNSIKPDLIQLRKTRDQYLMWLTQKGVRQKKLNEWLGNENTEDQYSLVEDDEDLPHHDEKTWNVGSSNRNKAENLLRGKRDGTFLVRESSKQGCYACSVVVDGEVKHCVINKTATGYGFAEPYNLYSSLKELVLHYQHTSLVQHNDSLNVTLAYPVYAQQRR

Row | IC50 ([1]; read-out: IC50 PI3Kα) [nM] | IC50 [2] [nM] | IC50 ([3]; read-out: IC50 PI3Kγ) [nM] | IC50 [4] [nM] | IC50 [1] [nM] | IC50 [3] [nM] | Compound
1 | 300 | 5200 | 9500 | 1.2 |  |  | CN1CCN(c2nc(-c3ccc(NC(=O)Nc4cccnc4)cc3)nc(N3CC4CCC(C3)O4)n2)C1 [Example 171, 1-{4-[4-(3-methylimidazolidin-1-yl)-6-(8-oxa-3-azabicyclo[3.2.1]oct-3-yl)-1,3,5-triazin-2-yl]phenyl}-3-pyridin-3-ylurea]
2 | 861 | 4.25 | 727 | 2.1 |  |  | COCC(COC)Oc1nc(-c2ccc(NC(=O)Nc3ccncc3)cc2)nc(N2CC3CCC(C2)O3)n1 [Example 174, 1-(4-{4-[2-methoxy-1-(methoxymethyl)ethoxy]-6-(8-oxa-3-azabicyclo[3.2.1]oct-3-yl)-1,3,5-triazin-2-yl}phenyl)-3-pyridin-4-ylurea]
3 | 549 | 9.5 | 453 | 4.8 |  |  | COCC(COC)Oc1nc(-c2ccc(NC(=O)Nc3ccc(N4CCN(C)CC4)cc3)cc2)nc(N2CC3CCC(C2)O3)n1 [Example 175, 1-(4-{4-[2-methoxy-1-(methoxymethyl)ethoxy]-6-(8-oxa-3-azabicyclo[3.2.1]oct-3-yl)-1,3,5-triazin-2-yl}phenyl)-3-[4-(4-methylpiperazin-1-yl)phenyl]urea]
4 | 1120 | 1000 | 3730 | 22 |  |  | COCC(COC)Oc1nc(-c2ccc(NC(=O)OCCO)cc2)nc(N2CC3CCC(C2)O3)n1 [Example 176, 2-hydroxyethyl (4-{4-[2-methoxy-1-(methoxymethyl)ethoxy]-6-(8-oxa-3-azabicyclo[3.2.1]oct-3-yl)-1,3,5-triazin-2-yl}phenyl)carbamate]
5 | 5840 | 600 | 4120 | 1.6 |  |  | CNC(=O)Nc1ccc(-c2nc(OC(COC)COC)nc(N3CC4CCC(C3)O4)n2)cc1 [Example 177, 1-(4-{4-[2-methoxy-1-(methoxymethyl)ethoxy]-6-(8-oxa-3-azabicyclo[3.2.1]oct-3-yl)-1,3,5-triazin-2-yl}phenyl)-3-methylurea]
6 |  | 850 |  | 14 | > 10000 | > 10000 | COCC(COC)Oc1nc(-c2ccc(NC(=O)NC3CC3)cc2)nc(N2CC3CCC(C2)O3)n1 [Example 178, 1-cyclopropyl-3-(4-{4-[2-methoxy-1-(methoxymethyl)ethoxy]-6-(8-oxa-3-azabicyclo[3.2.1]oct-3-yl)-1,3,5-triazin-2-yl}phenyl)urea]
7 | 531 | 5800 | 8000 | 1.6 |  |  | O=C(Nc1ccc(-c2nc(OCC3CCCNC3)nc(N3CC4CCC(C3)O4)n2)cc1)Nc1cccnc1 (stereo not drawn) [Example 180, 1-{4-[4-(8-oxa-3-azabicyclo[3.2.1]oct-3-yl)-6-(piperidin-3-ylmethoxy)-1,3,5-triazin-2-yl]phenyl}-3-pyridin-3-ylurea]
8 | 308 | 3500 | 5000 | 3 |  |  | O=C(Nc1ccc(-c2nc(OCCC3CCNCC3)nc(N3CC4CCC(C3)O4)n2)cc1)Nc1cccnc1 [Example 182, 1-{4-[4-(8-oxa-3-azabicyclo[3.2.1]oct-3-yl)-6-(2-piperidin-4-ylethoxy)-1,3,5-triazin-2-yl]phenyl}-3-pyridin-3-ylurea]
9 | 526 | 8500 | 11000 | 14 |  |  | O=C(Nc1ccc(-c2nc(OCC3CCNCC3)nc(N3CC4CCC(C3)O4)n2)cc1)Nc1cccnc1 [Example 183, 1-{4-[4-(8-oxa-3-azabicyclo[3.2.1]oct-3-yl)-6-(piperidin-4-ylmethoxy)-1,3,5-triazin-2-yl]phenyl}-3-pyridin-3-ylurea]
10 | 780 | 950 | 1320 | 6.3 |  |  | CNc1nc(-c2ccc(NC(=O)Nc3cccnc3)cc2)nc(N2CC3CCC(C2)O3)n1 [Example 190, 1-{4-[4-(methylamino)-6-(8-oxa-3-azabicyclo[3.2.1]oct-3-yl)-1,3,5-triazin-2-yl]phenyl}-3-pyridin-3-ylurea]
11 | 435 | 220 | 4630 | 16 |  |  | CCNc1nc(-c2ccc(NC(=O)Nc3cccnc3)cc2)nc(N2CC3CCC(C2)O3)n1 [Example 191, 1-{4-[4-(ethylamino)-6-(8-oxa-3-azabicyclo[3.2.1]oct-3-yl)-1,3,5-triazin-2-yl]phenyl}-3-pyridin-3-ylurea]
12 | 1120 | 620 | 453 | 43 |  |  | CN(C)c1nc(-c2ccc(NC(=O)Nc3cccnc3)cc2)nc(N2CC3CCC(C2)O3)n1 [Example 192, 1-{4-[4-(dimethylamino)-6-(8-oxa-3-azabicyclo[3.2.1]oct-3-yl)-1,3,5-triazin-2-yl]phenyl}-3-pyridin-3-ylurea]
13 | 401 | 105 | 3130 | 0.8 |  |  | CC(C)Nc1nc(-c2ccc(NC(=O)Nc3cccnc3)cc2)nc(N2CC3CCC(C2)O3)n1 [Example 193, 1-{4-[4-(isopropylamino)-6-(8-oxa-3-azabicyclo[3.2.1]oct-3-yl)-1,3,5-triazin-2-yl]phenyl}-3-pyridin-3-ylurea]
14 | 902 | 420 | 8770 | 6.4 |  |  | CNC(=O)Nc1ccc(-c2nc(NC(C)C)nc(N3CC4CCC(C3)O4)n2)cc1 [Example 212, 1-methyl-3-(4-{4-[(1-methylethyl)amino]-6-(8-oxa-3-azabicyclo[3.2.1]oct-3-yl)-1,3,5-triazin-2-yl}phenyl)urea]
15 | 187 | 30 | 3160 | 1.2 |  |  | CC(C)Nc1nc(-c2ccc(NC(=O)Nc3ccncc3)cc2)nc(N2CC3CCC(C2)O3)n1 [Example 215, 1-(4-{4-[(1-methylethyl)amino]-6-(8-oxa-3-azabicyclo[3.2.1]oct-3-yl)-1,3,5-triazin-2-yl}phenyl)-3-pyridin-4-ylurea]
16 | 253 | 13 | 3230 | 3.2 |  |  | CC(C)Nc1nc(-c2ccc(NC(=O)Nc3ccc(N4CCN(C)CC4)cc3)cc2)nc(N2CC3CCC(C2)O3)n1 [Example 217, 1-(4-{4-[(1-methylethyl)amino]-6-(8-oxa-3-azabicyclo[3.2.1]oct-3-yl)-1,3,5-triazin-2-yl}phenyl)-3-[4-(4-methylpiperazin-1-yl)phenyl]urea]
17 | 279 | 12 | 2780 | 2.6 |  |  | CC(C)Nc1nc(-c2ccc(NC(=O)Nc3ccc(C(=O)NN(C)C)cc3)cc2)nc(N2CC3CCC(C2)O3)n1 [Example 218, 1-{4-[(2,2-dimethylhydrazino)carbonyl]phenyl}-3-(4-{4-[(1-methylethyl)amino]-6-(8-oxa-3-azabicyclo[3.2.1]oct-3-yl)-1,3,5-triazin-2-yl}phenyl)urea]

Row | Compound | IC50 ([1]; read-out: IC50 PI3Kα) [nM] | IC50 [2] [nM] | IC50 ([3]; read-out: IC50 PI3Kγ) [nM] | IC50 [4] [nM] | IC50 [1] [nM] | IC50 [3] [nM]
18 | NCCCCOc1nc(-c2ccc(NC(=O)Nc3cccnc3)cc2)nc(N2CC3CCC(C2)O3)n1 [Example 181, 1-{4-[4-(4-aminobutoxy)-6-(8-oxa-3-azabicyclo[3.2.1]oct-3-yl)-1,3,5-triazin-2-yl]phenyl}-3-pyridin-3-ylurea] | 426 | 3400 | 6730 | 11 |  | 
